Assays:
Adenosine receptor A1 = molecular target: T1, Adenosine receptor A1 (Homo sapiens, UniProt P30542)
T1 sequence (P30542 whole entry): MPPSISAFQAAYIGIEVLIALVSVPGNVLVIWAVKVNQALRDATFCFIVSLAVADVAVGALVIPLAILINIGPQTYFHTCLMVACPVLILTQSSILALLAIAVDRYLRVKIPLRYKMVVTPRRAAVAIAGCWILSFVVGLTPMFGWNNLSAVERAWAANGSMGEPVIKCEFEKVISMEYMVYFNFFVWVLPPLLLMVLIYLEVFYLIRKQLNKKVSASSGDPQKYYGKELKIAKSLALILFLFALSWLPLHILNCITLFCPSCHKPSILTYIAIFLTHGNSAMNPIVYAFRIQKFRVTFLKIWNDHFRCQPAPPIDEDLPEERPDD

Adenosine receptor A2a = Adenosine receptor A2a (Homo sapiens, UniProt P29274)
Sequence of Adenosine receptor A2a (P29274 whole entry): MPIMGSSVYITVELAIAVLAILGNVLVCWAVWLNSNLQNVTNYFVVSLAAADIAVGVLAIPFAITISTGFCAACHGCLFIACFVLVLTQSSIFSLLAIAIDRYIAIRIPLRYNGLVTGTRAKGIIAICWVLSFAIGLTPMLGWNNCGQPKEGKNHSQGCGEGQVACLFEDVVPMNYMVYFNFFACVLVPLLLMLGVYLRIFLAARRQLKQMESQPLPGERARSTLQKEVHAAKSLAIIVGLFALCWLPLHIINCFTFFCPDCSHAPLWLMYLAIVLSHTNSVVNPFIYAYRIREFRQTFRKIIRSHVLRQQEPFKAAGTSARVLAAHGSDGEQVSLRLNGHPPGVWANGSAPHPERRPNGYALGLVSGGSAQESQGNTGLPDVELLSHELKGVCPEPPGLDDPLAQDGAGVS

Adenosine receptor A3 = molecular target: T2, Adenosine receptor A3 (Homo sapiens, UniProt P0DMS8)
T2 sequence (P0DMS8 whole entry): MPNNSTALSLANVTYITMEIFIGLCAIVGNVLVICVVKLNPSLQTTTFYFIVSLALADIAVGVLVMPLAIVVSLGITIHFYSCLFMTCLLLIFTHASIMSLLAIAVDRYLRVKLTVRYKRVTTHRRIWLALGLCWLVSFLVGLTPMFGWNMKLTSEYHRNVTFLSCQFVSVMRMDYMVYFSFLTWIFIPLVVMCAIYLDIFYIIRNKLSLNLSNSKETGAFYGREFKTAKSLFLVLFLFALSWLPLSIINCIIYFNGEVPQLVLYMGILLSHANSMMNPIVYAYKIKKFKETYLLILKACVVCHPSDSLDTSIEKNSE

[1] = molecular target: T3, Muscarinic acetylcholine receptor M2 (Homo sapiens, UniProt P08172); format: functional, cell-based
T3 sequence (P08172 whole entry): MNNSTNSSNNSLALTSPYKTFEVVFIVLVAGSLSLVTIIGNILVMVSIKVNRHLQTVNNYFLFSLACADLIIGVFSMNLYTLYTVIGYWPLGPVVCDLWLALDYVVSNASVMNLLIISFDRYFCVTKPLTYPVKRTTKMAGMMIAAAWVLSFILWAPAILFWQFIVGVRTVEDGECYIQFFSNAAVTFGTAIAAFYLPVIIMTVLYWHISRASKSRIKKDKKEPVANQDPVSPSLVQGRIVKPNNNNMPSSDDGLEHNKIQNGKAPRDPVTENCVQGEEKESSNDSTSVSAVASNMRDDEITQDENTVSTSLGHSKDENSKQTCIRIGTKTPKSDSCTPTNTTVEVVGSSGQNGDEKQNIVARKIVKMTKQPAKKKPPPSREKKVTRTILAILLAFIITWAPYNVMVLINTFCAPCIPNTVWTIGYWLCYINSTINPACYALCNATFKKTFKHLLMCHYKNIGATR

[2] = molecular target: Gamma-aminobutyric acid receptor subunit alpha-1 (Rattus norvegicus, UniProt P62813)
Sequence of Gamma-aminobutyric acid receptor subunit alpha-1 (P62813 whole entry): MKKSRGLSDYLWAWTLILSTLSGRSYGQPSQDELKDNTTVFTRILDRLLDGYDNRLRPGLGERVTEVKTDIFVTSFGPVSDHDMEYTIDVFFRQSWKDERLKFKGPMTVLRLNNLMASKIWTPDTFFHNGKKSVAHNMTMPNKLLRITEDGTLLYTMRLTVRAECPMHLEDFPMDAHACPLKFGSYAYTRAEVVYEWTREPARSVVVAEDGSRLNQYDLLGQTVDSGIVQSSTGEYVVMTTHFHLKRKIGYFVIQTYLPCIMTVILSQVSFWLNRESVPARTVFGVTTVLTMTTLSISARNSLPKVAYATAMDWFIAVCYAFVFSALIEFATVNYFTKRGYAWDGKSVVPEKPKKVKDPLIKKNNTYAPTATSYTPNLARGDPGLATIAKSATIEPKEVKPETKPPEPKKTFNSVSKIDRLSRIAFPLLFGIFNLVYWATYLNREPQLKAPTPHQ

Histamine H1 receptor = Histamine H1 receptor (Homo sapiens, UniProt P35367)
Sequence of Histamine H1 receptor (P35367 whole entry): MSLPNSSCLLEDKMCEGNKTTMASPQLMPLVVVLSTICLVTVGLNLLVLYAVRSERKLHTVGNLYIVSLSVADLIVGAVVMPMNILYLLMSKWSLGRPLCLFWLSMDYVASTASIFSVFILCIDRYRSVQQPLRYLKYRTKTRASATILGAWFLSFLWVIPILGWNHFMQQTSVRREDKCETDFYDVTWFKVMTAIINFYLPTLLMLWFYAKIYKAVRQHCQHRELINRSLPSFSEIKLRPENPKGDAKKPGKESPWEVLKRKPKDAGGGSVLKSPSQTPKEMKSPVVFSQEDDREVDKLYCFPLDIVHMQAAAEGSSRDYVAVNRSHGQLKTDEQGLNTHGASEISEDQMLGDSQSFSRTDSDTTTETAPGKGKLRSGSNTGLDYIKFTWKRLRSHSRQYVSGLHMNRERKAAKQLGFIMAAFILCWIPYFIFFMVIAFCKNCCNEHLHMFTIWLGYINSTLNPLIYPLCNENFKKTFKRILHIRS

[3] = molecular target: Delta-type opioid receptor (Homo sapiens, UniProt P41143)
Sequence of Delta-type opioid receptor (P41143 whole entry): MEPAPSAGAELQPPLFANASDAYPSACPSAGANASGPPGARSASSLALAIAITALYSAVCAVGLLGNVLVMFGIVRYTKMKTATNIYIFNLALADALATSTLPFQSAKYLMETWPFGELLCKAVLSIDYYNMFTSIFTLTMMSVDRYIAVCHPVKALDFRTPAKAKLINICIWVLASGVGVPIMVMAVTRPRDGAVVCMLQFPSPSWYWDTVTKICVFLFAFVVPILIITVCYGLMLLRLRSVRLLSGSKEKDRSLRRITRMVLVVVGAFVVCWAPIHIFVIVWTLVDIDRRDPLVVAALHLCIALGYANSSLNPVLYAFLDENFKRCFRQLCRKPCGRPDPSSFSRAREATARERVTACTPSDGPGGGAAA

[4] = molecular target: 3',5'-cyclic-AMP phosphodiesterase 4D (Homo sapiens, UniProt Q08499); format: functional
Sequence of 3',5'-cyclic-AMP phosphodiesterase 4D (Q08499 whole entry): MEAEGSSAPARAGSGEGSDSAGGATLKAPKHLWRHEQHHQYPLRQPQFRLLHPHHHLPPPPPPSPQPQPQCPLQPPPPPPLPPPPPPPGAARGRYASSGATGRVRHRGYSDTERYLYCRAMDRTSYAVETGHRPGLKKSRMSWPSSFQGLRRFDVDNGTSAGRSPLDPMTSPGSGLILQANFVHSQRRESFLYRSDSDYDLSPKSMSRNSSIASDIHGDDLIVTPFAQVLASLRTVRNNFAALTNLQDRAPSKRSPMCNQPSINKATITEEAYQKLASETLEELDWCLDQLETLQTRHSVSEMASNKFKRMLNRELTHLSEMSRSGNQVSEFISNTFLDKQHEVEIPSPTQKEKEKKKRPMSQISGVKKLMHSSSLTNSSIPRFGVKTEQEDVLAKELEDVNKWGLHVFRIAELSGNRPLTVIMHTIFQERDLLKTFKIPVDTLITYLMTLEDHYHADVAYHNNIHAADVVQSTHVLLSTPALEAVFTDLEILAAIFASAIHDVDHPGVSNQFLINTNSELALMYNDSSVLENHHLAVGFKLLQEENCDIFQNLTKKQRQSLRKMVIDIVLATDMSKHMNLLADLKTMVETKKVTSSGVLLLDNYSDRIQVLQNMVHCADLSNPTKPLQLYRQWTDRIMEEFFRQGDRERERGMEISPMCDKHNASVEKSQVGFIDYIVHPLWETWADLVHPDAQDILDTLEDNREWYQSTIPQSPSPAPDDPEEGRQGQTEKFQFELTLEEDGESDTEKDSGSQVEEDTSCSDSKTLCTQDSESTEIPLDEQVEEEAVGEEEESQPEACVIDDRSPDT

Progesterone receptor = molecular target: T4, Progesterone receptor (Homo sapiens, UniProt P06401); format: functional
T4 sequence (P06401 whole entry): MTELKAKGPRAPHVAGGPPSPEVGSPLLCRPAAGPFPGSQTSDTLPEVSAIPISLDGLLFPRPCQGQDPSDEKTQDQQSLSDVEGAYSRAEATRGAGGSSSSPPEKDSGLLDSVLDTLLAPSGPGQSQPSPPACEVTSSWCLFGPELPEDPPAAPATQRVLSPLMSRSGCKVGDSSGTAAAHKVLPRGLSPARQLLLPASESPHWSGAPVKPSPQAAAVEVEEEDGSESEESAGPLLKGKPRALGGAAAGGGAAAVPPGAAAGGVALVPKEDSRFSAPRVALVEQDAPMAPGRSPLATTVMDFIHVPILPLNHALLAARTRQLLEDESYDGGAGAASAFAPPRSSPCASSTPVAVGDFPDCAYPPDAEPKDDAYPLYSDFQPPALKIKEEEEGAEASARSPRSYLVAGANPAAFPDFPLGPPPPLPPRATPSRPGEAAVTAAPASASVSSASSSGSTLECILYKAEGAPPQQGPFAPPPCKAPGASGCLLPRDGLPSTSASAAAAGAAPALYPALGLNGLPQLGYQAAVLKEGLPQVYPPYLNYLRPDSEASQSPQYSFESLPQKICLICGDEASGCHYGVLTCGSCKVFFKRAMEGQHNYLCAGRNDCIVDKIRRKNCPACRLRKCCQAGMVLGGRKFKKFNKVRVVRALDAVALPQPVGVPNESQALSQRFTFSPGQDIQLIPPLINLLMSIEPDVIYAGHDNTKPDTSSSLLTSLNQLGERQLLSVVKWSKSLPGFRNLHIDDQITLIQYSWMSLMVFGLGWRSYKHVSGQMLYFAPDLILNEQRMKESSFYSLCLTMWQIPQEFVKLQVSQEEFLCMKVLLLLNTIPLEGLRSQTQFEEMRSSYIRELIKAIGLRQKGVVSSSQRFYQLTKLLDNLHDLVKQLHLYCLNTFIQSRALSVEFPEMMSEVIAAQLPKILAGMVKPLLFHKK

[5] = molecular target: T5, Amine oxidase [flavin-containing] A (Homo sapiens, UniProt P21397); format: functional
T5 sequence (P21397 whole entry): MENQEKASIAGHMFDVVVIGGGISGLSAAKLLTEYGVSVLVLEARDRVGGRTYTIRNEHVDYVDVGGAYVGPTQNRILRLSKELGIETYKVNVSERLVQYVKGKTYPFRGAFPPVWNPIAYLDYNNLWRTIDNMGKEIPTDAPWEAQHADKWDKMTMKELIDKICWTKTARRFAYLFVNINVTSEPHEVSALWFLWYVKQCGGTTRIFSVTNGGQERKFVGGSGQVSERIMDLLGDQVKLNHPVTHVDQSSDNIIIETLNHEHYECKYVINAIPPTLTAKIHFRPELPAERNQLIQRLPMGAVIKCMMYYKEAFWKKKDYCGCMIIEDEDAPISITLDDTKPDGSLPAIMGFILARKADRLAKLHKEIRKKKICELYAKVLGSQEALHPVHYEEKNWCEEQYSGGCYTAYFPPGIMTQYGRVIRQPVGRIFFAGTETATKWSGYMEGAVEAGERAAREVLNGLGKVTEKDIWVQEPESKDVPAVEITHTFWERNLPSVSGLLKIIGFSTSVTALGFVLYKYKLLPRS

Histamine H3 receptor = Histamine H3 receptor (Homo sapiens, UniProt Q9Y5N1)
Sequence of Histamine H3 receptor (Q9Y5N1 whole entry): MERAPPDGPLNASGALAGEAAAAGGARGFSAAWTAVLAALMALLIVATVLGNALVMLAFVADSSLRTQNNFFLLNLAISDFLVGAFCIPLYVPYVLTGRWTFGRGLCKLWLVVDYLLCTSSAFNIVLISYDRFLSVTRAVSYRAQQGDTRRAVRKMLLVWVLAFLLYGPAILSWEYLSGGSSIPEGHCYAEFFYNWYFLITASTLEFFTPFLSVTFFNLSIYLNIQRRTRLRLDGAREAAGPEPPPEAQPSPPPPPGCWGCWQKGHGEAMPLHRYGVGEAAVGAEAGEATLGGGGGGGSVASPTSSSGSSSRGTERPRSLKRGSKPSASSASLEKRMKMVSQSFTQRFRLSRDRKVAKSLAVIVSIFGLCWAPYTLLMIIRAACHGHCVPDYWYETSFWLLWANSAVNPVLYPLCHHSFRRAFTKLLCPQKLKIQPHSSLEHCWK
Also: assay procedure not described here.

SMILES | AC50 (Adenosine receptor A1) [µM] | AC50 (Adenosine receptor A2a) [µM] | AC50 (Adenosine receptor A3) [µM] | AC50 [1] [µM] | AC50 [2] [µM] | AC50 (Histamine H1 receptor) [µM] | AC50 [3] [µM] | AC50 [4] [µM] | AC50 (Progesterone receptor) [µM] | AC50 [5] [µM] | AC50 (Histamine H3 receptor) [µM]
CCC(=O)c1ccc2c(c1)N(CC(C)N(C)C)c1ccccc1S2 (configuration not stated) [PROPIOMAZINE] | > 10 | > 10 | > 10 | 1.1 | > 10 | 0.034 | > 30 | > 10 | > 30 | > 10 | > 10
Oc1cc(Cl)ccc1Oc1ccc(Cl)cc1Cl [TRICLOSAN] | > 30 | > 30 | 8.9 | > 30 | > 10 | > 30 | > 30 | > 30 | > 30 | > 30 | > 30
